Test results taken from patent US6306853A, “1,4-Dihydropyridine derivatives” (Nikken Chemicals Co., Ltd., priority 1998, dated 2001).
“And” between values parts separate entries of the source, which are not always exact repeats. Equal values may be shown once.

How the values were obtained:
[1] = system: VCR resistant murine leukemia (P388/VCR) cells; assay: In vivo overcoming of resistance in VCR resistant murine leukemia (P388/VCR) bearing mice, etoposide with compound 10 mg/kg; design: species or system CDF1 female mice; conditions: for Average days of survival / Effect of overcoming resistance T/V / Rate of prolongation of life T/C: VP-16 3 mg/kg + compound 10 mg/kg; for Effect of overcoming resistance T/V: vs VP-16 alone
Experimental: (§1) 1.2×10^5 VCR resistant murine leukemia (P388/VCR) cells were transplanted intravenously into groups of 5-6 CDF1 female mice, then the compound of the present invention (20 mg/kg) and Etoposide (VP-16) (3 mg/kg) were administered intravenously once per day for 5 days, after dissolving them in a physiological salt solution containing a small amount of hydrochloric acid. The observation was started from the next day. The number of survival days were found and the life prolonging rate (T/C) with respect to the controls was found. The effect in overcoming resistance to an anti-cancer drug (T/V) was found by the following formula.
(§2) Effect of overcoming resistance to the anti-cancer drug (T/V) %
(§3) =[(Rate of prolongation of life using VP-16 and the present compound (T/C))/(Rate of prolongation of life using VP-16 alone (T/C))]×100
In Vivo Test of Action Suppressing Proliferation of Cancer Cells by Combined Administration of Anti-Cancer Drug Etoposide
The Test Example 3 was repeated using 10 mg/kg administration of the present compound and the effects of overcoming resistance to the anti-cancer drug were determined from the average days of survival.

[2] = system: VCR resistant murine leukemia (P388/VCR) cells; assay: In vivo overcoming of resistance in VCR resistant murine leukemia (P388/VCR) bearing mice, etoposide with compound 20 mg/kg; design: species or system CDF1 female mice; conditions: for Average days of survival / Rate of prolongation of life T/C: VP-16 3 mg/kg + compound 20 mg/kg
Experimental: In Vivo Test of Action Suppressing Proliferation of Cancer Cells by Combined Administration of Anti-cancer Drug Etoposide
Effect of Overcoming Resistance to an Anti-cancer Drug for VCR Resistant Murine Leukemia Cell Bearing Mice
as §1, §2, §3

[3] = system: thoracic aorta of the rat; assay: Action easing KCl contraction in rat arteries; conditions: rat thoracic aorta ring, 50 mM KCl, compound 10^-6 M; read-out: Inhibitory rate of hyperpotassium contraction at 10^-6 M
Experimental: Action Easing KCl Contraction in Rat Arteries
The specimen was stabilized for approximately 60 minutes, then a potassium chloride solution was added to the Magnus tube to give a final concentration of 50 mM. The positive control compound or the compound of the present invention was cumulatively added to become 1×10^-6 M when the contraction reaction occurring at that time reached equilibrium. The contraction force was recorded by an FD-pickup (Nihon Koden) via a polygraph (Nihon Koden).

[4] = i.v. once per day for 5 days, vs control
[5] = VP-16 alone 3 mg/kg, reference = 100

SMILES	Average days of survival ([2]; i.v. once per day for 5 days)	Rate of prolongation of life T/C [2, 4]	further results
CCOC(=O)C1=C(c2ccc(-n3c(C(C)C)nc4cnccc43)cc2)NC(C)=C(C(=O)OCC#Cc2cccnc2)C1CC(c1ccccc1)c1ccccc1 (centres unmarked) [Compound 71, 4-(2,2-Diphenylethyl)-2-[4-(2-isopropylimidazo[4,5-c]pyridin-1-yl)phenyl]-6-methyl-1,4-dihydropyridin-3,5-dicarboxylate 3-ethylester 5-[3-(3-pyridyl)-2-propynyl]ester]	–	–	Average days of survival [1]: 17.4 days; Effect of overcoming resistance T/V [1]: 164%; Rate of prolongation of life T/C ([1]; vs control): 167%
CCOC(=O)C1=C(c2ccc(-n3c(C)nc4cnccc43)cc2)NC(C)=C(C(=O)OCC#Cc2cccnc2)C1C(C)c1ccccc1 (stereo not drawn) [Compound 7, 6-Methyl-4-(α-methylbenzyl)-2-[4-(2-methylimidazo[4,5-c]pyridin-1-yl)phenyl]-1,4-dihydropyridin-3,5-dicarboxylate 3-ethylester 5-[3-(3-pyridyl)-2-propynyl]ester]	13.4 days	146%	–
CCOC(=O)C1=C(c2ccc(-n3c(C)nc4cnccc43)cc2)NC(C)=C(C(=O)OCC#Cc2cccnc2)C1/C=C/c1ccccc1 (centres unmarked) [Compound 10, 6-Methyl-2-[4-(2-methylimidazo[4,5-c]pyridin-1-yl)phenyl]-4-[(E)-2-phenylethenyl]-1,4-dihydropyridin-3,5-dicarboxylate 3-ethylester 5-[3-(3-pyridyl)-2-propynyl]ester]	17.0 days	185%	–
COc1ccc(CCN(C)CCCC(C#N)(c2ccc(OC)c(OC)c2)C(C)C)cc1OC (centres unmarked) [Verapamil, reference compound]	–	–	inhibition at 1 µM [3]: 42.3%
CCOC(=O)C1=C(c2ccc(-n3c(C)nc4cnccc43)cc2)NC(C)=C(C(=O)OCC#Cc2cccnc2)C1C1CCCCC1 (centres unmarked) [Compound 4, 4-Cyclohexyl-6-methyl-2-[4-(2-methylimidazo[4,5-c]pyridin-1-yl)phenyl]-1,4-dihydropyridin-3,5-dicarboxylate 3-ethylester 5-[3-(3-pyridyl)-2-propynyl]ester]	14.8 days	161%	–
CCOC(=O)C1=C(c2ccc(-n3c(C)nc4cnccc43)cc2)NC(C)=C(C(=O)OC(C)C#Cc2cccnc2)C1CCc1ccccc1 (centres unmarked) [Compound 23, 6-Methyl-2-[4-(2-methylimidazo[4,5-c]pyridin-1-yl)phenyl]-4-(2-phenylethyl)-1,4-dihydropyridin-3,5-dicarboxylate 3-ethylester 5-[1-methyl-3-(3-pyridyl)-2-propynyl]ester]	15.8 days	172%	Average days of survival [1]: 13.0 days; Effect of overcoming resistance T/V [1]: 123%; Rate of prolongation of life T/C ([1]; vs control): 125%
CCOC(=O)C1=C(c2ccc(-n3c(C)nc4cnccc43)cc2)NC(C)=C(C(=O)OCC#Cc2cccnc2)C1/C=C/c1ccccc1Cl (centres unmarked) [Compound 12, 4-[(E)-2-(2-chlorophenyl)ethenyl]-6-methyl-2-[4-(2-methylimidazo[4,5-c]pyridin-1-yl)phenyl]-1,4-dihydropyridin-3,5-dicarboxylate 3-ethylester 5-[3-(3pyridyl)-2-propynyl]ester]	16.8 days	165%	–
CCOC(=O)C1=C(c2ccc(-n3c(C)nc4cnccc43)cc2)NC(C)=C(C(=O)OCC#Cc2cccnc2)C1CC(c1ccc(F)cc1)c1ccc(F)cc1 (centres unmarked) [Compound 78]	–	–	Average days of survival [1]: 14.2 days; Effect of overcoming resistance T/V [1]: 134%; Rate of prolongation of life T/C ([1]; vs control): 137%
CCOC(=O)C1=C(c2ccc(-n3c(C)nc4cnccc43)cc2)NC(C)=C(C(=O)OCC#Cc2cnc3ccccc3c2)C1/C=C/c1ccccc1 (centres unmarked) [Compound 19, 6-Methyl-2-[4-(2-methylimidazo[4,5-c]pyridin-1-yl)phenyl]-4-[(E)-2-(2-phenyl)ethenyl]-1,4-dihydropyridin-3,5-dicarboxylate 3-ethylester 5-[(3-quonolyl)-2-propynyl]ester]	16.0 days	157%	–
COc1cc([C@@H]2c3cc4c(cc3[C@@H](O[C@@H]3O[C@@H]5CO[C@@H](C)O[C@H]5[C@H](O)[C@H]3O)[C@H]3COC(=O)[C@H]23)OCO4)cc(OC)c1O [VP-16, Etoposide, reference compound]	–	–	Average days of survival (VP-16 alone) ([1]; VP-16 alone 3 mg/kg): 10.6 days; Effect of overcoming resistance T/V (VP-16 alone) [1, 5]: 100%; Rate of prolongation of life T/C (VP-16 alone) ([1]; VP-16 alone 3 mg/kg, vs control): 102%; Average days of survival (VP-16 alone) ([2]; VP-16 alone 3 mg/kg, i.v. once per day for 5 days): 9.5 days and 11.0 days and 10.5 days; Rate of prolongation of life T/C (VP-16 alone) ([2]; VP-16 alone 3 mg/kg, i.v. once per day for 5 days, vs control): 103% and 108% and 102%; Effect of overcoming resistance T/V (VP-16 alone) [2, 5]: 100%
CCOC(=O)C1=C(c2ccc(-n3c(C)nc4cnccc43)cc2)NC(C)=C(C(=O)OCC#Cc2cccnc2)C1CCc1ccccc1OC (centres unmarked) [Compound 13, 4-[2-(2-methoxyphenyl)ethyl]-6-methyl-2-[4-(2-methylimidazo[4,5-c]pyridin-1-yl)phenyl]-1,4-dihydropyridin-3,5-dicarboxylate 3-ethylester 5-[3-(3-pyridyl)-2-propynyly]ester]	15.7 days	154%	–
CCOC(=O)C1=C(c2ccc(-n3c(C)nc4cnccc43)cc2)NC(C)=C(C(=O)OCC#Cc2cccnc2)C1CC1c2ccccc2C2C(c3ccccc31)C2(F)F (centres unmarked) [Compound 66, 4-(1,1-Difluoro-1,1a,6, 10b-tetrahydrodibenzoa,[a,e]cyclopropa[c]cyclohepten-6-ylmethyl)-6-methyl-2-[4-(2-methylimidazo[4,5-c]pyridin-1-yl)phenyl]-1,4-dihydropyridin-3,5-dicarboxylate 3-ethylester 5-[3-(3-pyridyl)-2-propynyl]ester]	14.5 days	141%	–
CCOC(=O)C1=C(c2ccc(-n3c(C)nc4cnccc43)cc2)NC(C)=C(C(=O)OCC#Cc2cccnc2)C1CCc1ccccc1Cl (centres unmarked) [Compound 11, 4-[2-(2-Chlorophenyl)ethyl]-6-methyl-2-[4-(2-methylimidazo[4,5-c]pyridin-1-yl)phenyl]-1,4-dihydropyridin-3 ,5-dicarboxylate 3-ethylester 5-[3-(3-pyridyl)-2-propynyl]ester]	15.8 days	155%	–
CCOC(=O)C1=C(c2ccc(-n3c(C)nc4cnccc43)cc2)NC(C)=C(C(=O)OCC#Cc2cncc3ccccc23)C1/C=C/c1ccccc1 (centres unmarked) [Compound 20]	14.7 days	144%	–
CCOC(=O)C1=C(c2ccc(-n3c(C)nc4cnccc43)cc2)NC(C)=C(C(=O)OCC#Cc2cccnc2)C1C=C1c2ccccc2C2C(c3ccccc31)C2(F)F (centres unmarked) [Compound 67, 4-(1,1-Difluoro-1,1a,6,10b-tetrahydrodibenzo[a,e]cyclopropa[c]cyclohepten-6-ylidenemethyl)-6-methyl-2-[4-(2-methylimidazo[4,5-c]pyridin-1-yl)phenyl]-1,4-dihydropyridin-3,5-dicarboxylate 3-ethylester 5-[3-(3-pyridyl)-2-propynyl]ester]	14.3 days	139%	–
CCOC(=O)C1=C(c2ccc(-n3c(C)nc4cnccc43)cc2)NC(C)=C(C(=O)OCC#Cc2cnc3ccccc3c2)C1CCc1ccccc1 (centres unmarked) [Compound 18, 6-Methyl-2-[4-(2-methylimidazo[4,5-c]pyridin-1-yl)phenyl]-4-(2-phenylethyl)-1,4-dihydropyridin-3,5-dicarboxylate 3-ethylester 5-[3-(3-quinolyl)-2-propynyl]ester]	16.0 days	157%	–
CCOC(=O)C1=C(c2ccc(-n3c(C)nc4cnccc43)cc2)NC(C)=C(C(=O)OCCC#Cc2cccnc2)C1CCc1ccccc1 (centres unmarked) [Compound 47, 6-Methyl-2-[4-(2-methylimidazo[4,5-c]pyridin-1-yl)phenyl]-4-(2-phenylethyl)-1,4-dihydropyridin-3,5-dicarboxylate 3-ethylester 5-[4-(3-pyridyl)-3-butynyl]ester]	15.2 days	148%	–
CCOC(=O)C1=C(c2ccc(-n3c(C)nc4cnccc43)cc2)NC(C)=C(C(=O)OCC#Cc2cccnc2)C1CC(c1ccccc1)c1ccccc1 (centres unmarked) [Compound 60]	16.3 days	158%	–
